Experimental data taken from US4235909A, “Octahydro-2H-pyrrolo[3,4-g]quinolines” (Eli Lilly and Company, priority 1979, dated 1980).
Counter-ions that a name gives are not always drawn.

Tests used:
[1] = tested on: 6-hydroxydopamine-lesioned rats; assay: Rat turning test in 6-hydroxydopamine-lesioned (nigro-neostriatal-lesioned) rats, dopamine agonist activity; assay type: in vivo; conditions: 1 mg/kg intraperitoneal; for % of Rats Exhibiting Turning Behavior: aqueous solution; for Average Number of Turns/rat: first 15 minutes after end of latency period
Method: In this test, nigro-neostriatal-lesioned rats are employed, as prepared by the procedure of Ungerstedt and Arbuthnott, Brain Res, 24, 485 (1970). A compound having dopamine agonist activity causes the rats to turn in circles contralateral to the side of the lesion. After a latency period, which varies from compound to compound, the number of turns is counted over a 15-minute period.
The compounds were dissolved in water and the aqueous solution injected into the rat by the intraperitoneal route at a dose level of 1 mg/kg.

prolactin = assay: Inhibition of prolactin secretion in reserpine-treated male rats; assay type: in vivo, rat (Sprague-Dawley); conditions: serum one hour after treatment, reserpine pretreated male rats
Method: The compounds of this invention are also useful as prolactin inhibitors and as such they can be employed in the treatment of inappropriate lactation such as postpartum lactation and galactorrhea.
Adult male rats of the Sprague-Dawley strain weighing about 200 g. were housed in an air-conditioned room with controlled lighting (lights on […].) and fed lab chow and water ad libitum. Each rat received an intraperitoneal injection of 2.0 mg. of reserpine in aqueous suspension 18 hours before administration of the test drug. The purpose of the reserpine was to keep prolactin levels uniformly elevated. The compounds under test were dissolved in 10 percent ethanol, and were injected intraperitoneally at doses of 0.5 and 5 mg/kg. Each compound was administered at each dose level to a group of 10 rats, and a control group of 10 intact males received an equivalent amount of 10 percent ethanol. One hour after treatment, all rats were killed by decapitation, and 150 μl aliquots of serum were assayed for prolactin.
The difference between the prolactin level of the treated rats and prolactin level of the control rats, divided by the prolactin level of the control rats gives the percent inhibition of prolactin secretion attributable to the compounds of this invention. In the table, column 1 gives the name of the compound; and columns 2 and 3, the percent prolactin inhibition at the 0.5 and 5 mg/kg dose levels.

[2] = Acute lethality after intraperitoneal dosage (LD50); assay type: in vivo
Method: In using the compounds of this invention to inhibit prolactin secretion or to treat Parkinson's syndrome or for other pharmacologic action, a compound according to Formula I above in which R^2 is C1 -C3 alkyl or allyl and R^1 is H or C1 -C3 alkyl, or a salt thereof with a pharmaceutically-acceptable acid, is administered to a subject suffering from Parkinsonism or in need of having this prolactin level reduced in an effective amount to treat Parkinsonism or to reduce prolactin. Oral administration is preferred. If parenteral administration is used, the injection is preferably by the subcutaneous route using an appropriate pharmaceutical formulation. […] In particular, with intravenous or intramuscular administration, a water soluble pharmaceutically-acceptable salt is employed. For oral administration, the compound either as the free base or in the form of a salt thereof can also be mixed with standard pharmaceutical excipients and loaded into empty telescoping gelatin capsules or pressed into tablets. The oral dosage range is from about […]. to 10 mg./kg. of mammalian weight and the parenteral dose range from about 0.0025 to 2.5 mg./kg.

| SMILES | % of Rats Exhibiting Turning Behavior [1] | Average Number of Turns/rat [1] | Percent Prolactin Inhibition at Given Dose (prolactin; 0.5 mg/kg intraperitoneal) | Percent Prolactin Inhibition at Given Dose (prolactin; 5 mg/kg intraperitoneal) | LD50 ([2]; in vivo, ip, intraperitoneal, indicated from lethality at the doses tested) | deaths ([2]; intraperitoneal dosages of 10-30 mg./kg.) | lethality ([2]; intraperitoneal dosages of 100-300 mg./kg.) |
| --- | --- | --- | --- | --- | --- | --- | --- |
| CN1CCC[C@@H]2Cc3c[nH]cc3C[C@H]21 (relative stereo) [trans-dl-5-Methyl-4,4a,5,6,7,8,8a,9-octahydro-2H-pyrrolo[3,4-g]quinoline maleate] | 33% | 20 Turns/rat | 23% | 90% |  |  |  |
| CCCN1CCC[C@@H]2Cc3c[nH]cc3C[C@H]21 (relative stereo) |  |  |  |  | 30 to 100 mg/kg | no deaths | fatal |
| CCCN1CCC[C@@H]2Cc3c[nH]cc3C[C@H]21 (relative stereo) [trans-dl-5-n-Propyl-4,4a,5,6,7,8,8a,9-octahydro-2H-pyrrolo-[3,4-g]quinoline maleate] | 100% | 169 Turns/rat |  | 95% |  |  |  |
| CCCN1C[C@H](CO)C[C@@H]2Cc3c[nH]cc3C[C@H]21 (relative stereo) [trans-dl-5-n-propyl-7-hydroxymethyl-4,4a,5,6,7,8,8a,9-octahydropyrrolo[3,4-g]quinoline] | 100% | 109 Turns/rat |  |  |  |  |  |
